Source: patent publication US6737383B1, “Herbicidal oxadiazolidines” (priority 1999, dated 2004)

How the values were obtained:
rice = test: Test B flood test rice; format: in vivo, Oryza sativa
How it was run: (§1)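 Each value is a visual injury score relative to controls, with 10 meaning complete control and 0 no effect. Evaluation took place twelve to sixteen days after the 2-leaf-stage plants were treated and kept in the greenhouse.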

surinam grass = test: Test B pre/postemergence surinam grass; format: in vivo, Brachiaria decumbens
How it was run: (§2)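 Test chemicals in a non-phytotoxic solvent mixture with surfactant were sprayed preemergence onto planted seeds and postemergence onto plants 2 to 18 cm tall (1- to 4-leaf stage). After twelve to sixteen days in a greenhouse, injury was visually rated against untreated controls from 0 (no effect) to 10 (complete control).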

wild oat = test: Test B pre/postemergence wild oat; format: in vivo, Avena fatua
How it was run: as §2

bedstraw = test: Test B pre/postemergence bedstraw; format: in vivo, Galium aparine
How it was run: as §2

velvetleaf = test: Test B pre/postemergence velvetleaf; format: in vivo, Abutilon theophrasti
How it was run: as §2

giant foxtail = test: Test B pre/postemergence giant foxtail; format: in vivo, Setaria faberii
How it was run: as §2

smallflower flatsedge = test: Test B flood test smallflower flatsedge; format: in vivo, Cyperus difformis
How it was run: as §1

blackgrass = test: Test B pre/postemergence blackgrass; format: in vivo, Alopecurus myosuroides
How it was run: as §2

morningglory = test: Test B pre/postemergence morningglory; format: in vivo, Ipomoea hederacea
How it was run: as §2

soybean = test: Test B pre/postemergence soybean; format: in vivo, Glycine max
How it was run: as §2

crabgrass = test: Test B pre/postemergence crabgrass; format: in vivo, Digitaria sanguinalis
How it was run: as §2

pigweed = test: Test B pre/postemergence pigweed; format: in vivo, Amaranthus retroflexus
How it was run: as §2

corn = test: Test B pre/postemergence corn; format: in vivo, Zea mays
How it was run: as §2

cocklebur = test: Test B pre/postemergence cocklebur; format: in vivo, Xanthium strumarium
How it was run: as §2

bamyardgrass = test: Test B flood test barnyardgrass; format: in vivo, Echinochloa crus-galli
How it was run: as §1

wheat = test: Test B pre/postemergence wheat; format: in vivo, Triticum aestivum
How it was run: as §2

[1] = Rate 62 g/ha, headed Pre-emergence (flood test species), scale 0 to 10 (0 no effect, 10 complete control)
[2] = Rate 125 g/ha, Pre-emergence, flood test species, scale 0 to 10 where 0 is no effect and 10 is complete control
[3] = Rate 250 g/ha, Pre-emergence, flood-test species, scale 0 to 10, 0 is no effect, 10 is complete control
[4] = Rate 500 g/ha, Pre-emergence, flood test species, scale 0 to 10 (0 no effect, 10 complete control)
[5] = Preemergence, Rate 62 g/ha, scale of 0 to 10 where 0 is no effect and 10 is complete control
[6] = Preemergence, Rate 250 g/ha, scale of 0 to 10 where 0 is no effect and 10 is complete control
[7] = Preemergence, Rate 500 g/ha, scale of 0 to 10 where 0 is no effect and 10 is complete control
[8] = Rate 62 g/ha, Postemergence, scale 0 to 10 (0 no effect, 10 complete control)
[9] = Rate 125 g/ha, Postemergence, scale of 0 to 10 where 0 is no effect and 10 is complete control
[10] = Rate 250 g/ha, Postemergence, scale of 0 to 10 where 0 is no effect and 10 is complete control
[11] = Rate 500 g/ha, Postemergence, scale 0 to 10, 0 no effect, 10 complete control

Q: Which results are given for `Cc1ccccc1-n1c(=O)on(C(=O)N(c2ccc(OC(F)(F)F)cc2)C(C)C)c1=O` [Compound 300]?
A: Rice plant response rating (rice; [1]): 0; Rice plant response rating (rice; [2]): 0; Rice plant response rating (rice; [3]): 0; Rice plant response rating (rice; [4]): 0; B. signalgrass plant response rating (surinam grass; [5]): 0; B. signalgrass plant response rating (0 to 10 scale, 0 is no effect, 10 is complete control) (surinam grass; Preemergence, Rate 125 g/ha): 0; B. signalgrass plant response rating (surinam grass; [6]): 0; B. signalgrass plant response rating (surinam grass; [7]): 2; B. signalgrass plant response rating (surinam grass; [8]): 0; B. signalgrass plant response rating (surinam grass; [9]): 0; Plant response rating, B. signalgrass (surinam grass; [10]): 0; B. signalgrass plant response rating (surinam grass; [11]): 0; Wild oats plant response rating (wild oat; [5]): 0; Wild oats plant response rating (0 to 10 scale) (wild oat; Preemergence, Rate 125 g/ha): 0; Wild oats plant response rating (wild oat; [6]): 0; Wild oats plant response rating (wild oat; [7]): 3; Wild oats plant response rating (wild oat; [8]): 0; Wild oats plant response rating (wild oat; [9]): 0; Plant response rating, Wild oats (wild oat; [10]): 0; Bedstraw plant response rating (bedstraw; [6]): 0; Bedstraw plant response rating (bedstraw; [7]): 8; Bedstraw plant response rating (bedstraw; [8]): 0; Bedstraw plant response rating (bedstraw; [9]): 0; Plant response rating, Bedstraw (bedstraw; [10]): 0; Bedstraw plant response rating (bedstraw; [11]): 0; Velvetleaf plant response rating (velvetleaf; [5]): 0; Velvetleaf plant response rating (0 to 10 scale) (velvetleaf; Preemergence, Rate 125 g/ha): 0; Velvetleaf plant response rating (velvetleaf; [6]): 0; Velvetleaf plant response rating (velvetleaf; [7]): 0; Velvetleaf plant response rating (velvetleaf; [8]): 0; Velvetleaf plant response rating (velvetleaf; [9]): 0; Plant response rating, Velvetleaf (velvetleaf; [10]): 0; Giant foxtail plant response rating (giant foxtail; [5]): 0; Giant foxtail plant response rating (0 to 10 scale) (giant foxtail; Preemergence, Rate 125 g/ha): 5; Giant foxtail plant response rating (giant foxtail; [6]): 9; Giant foxtail plant response rating (giant foxtail; [7]): 10; Giant foxtail plant response rating (giant foxtail; [8]): 0; Giant foxtail plant response rating (giant foxtail; [9]): 0; Plant response rating, Giant foxtail (giant foxtail; [10]): 0; S. Flatsedge plant response rating (smallflower flatsedge; [1]): 0; S. Flatsedge plant response rating (smallflower flatsedge; [2]): 0; S. Flatsedge plant response rating (smallflower flatsedge; [3]): 0; S. Flatsedge plant response rating (smallflower flatsedge; [4]): 0; Blackgrass plant response rating (blackgrass; [5]): 0; Blackgrass plant response rating (0 to 10 scale) (blackgrass; Preemergence, Rate 125 g/ha): 0; Blackgrass plant response rating (blackgrass; [6]): 0; Blackgrass plant response rating (blackgrass; [7]): 0; Blackgrass plant response rating (blackgrass; [8]): 0; Blackgrass plant response rating (blackgrass; [9]): 0; Plant response rating, Blackgrass (blackgrass; [10]): 0; Blackgrass plant response rating (blackgrass; [11]): 0; Morningglory plant response rating (morningglory; [5]): 0; Morningglory plant response rating (0 to 10 scale) (morningglory; Preemergence, Rate 125 g/ha): 0; Morningglory plant response rating (morningglory; [6]): 0; Morningglory plant response rating (morningglory; [7]): 0; Morningglory plant response rating (morningglory; [8]): 0; Morningglory plant response rating (morningglory; [9]): 0; Plant response rating, Morningglory (morningglory; [10]): 0; Soybean plant response rating (soybean; [5]): 0; Soybean plant response rating (0 to 10 scale) (soybean; Preemergence, Rate 125 g/ha): 0; Soybean plant response rating (soybean; [6]): 0; Soybean plant response rating (soybean; [7]): 0; Soybean plant response rating (soybean; [8]): 1; Soybean plant response rating (soybean; [9]): 2; Plant response rating, Soybean (soybean; [10]): 2; Crabgrass plant response rating (crabgrass; [5]): 0; Crabgrass plant response rating (0 to 10 scale) (crabgrass; Preemergence, Rate 125 g/ha): 2; Crabgrass plant response rating (crabgrass; [6]): 4; Crabgrass plant response rating (crabgrass; [7]): 7; Crabgrass plant response rating (crabgrass; [8]): 0; Crabgrass plant response rating (crabgrass; [9]): 0; Plant response rating, Crabgrass (crabgrass; [10]): 0; Redroot pigweed plant response rating (pigweed; [5]): 0; Redroot pigweed plant response rating (0 to 10 scale) (pigweed; Preemergence, Rate 125 g/ha): 0; Redroot pigweed plant response rating (pigweed; [6]): 0; Redroot pigweed plant response rating (pigweed; [7]): 0; Redroot pigweed plant response rating (pigweed; [8]): 0; Redroot pigweed plant response rating (pigweed; [9]): 0; Plant response rating, Redroot pigweed (pigweed; [10]): 0; Corn plant response rating (corn; [5]): 0; Corn plant response rating (0 to 10 scale) (corn; Preemergence, Rate 125 g/ha): 0; Corn plant response rating (corn; [6]): 0; Corn plant response rating (corn; [7]): 0; Corn plant response rating (corn; [8]): 0; Corn plant response rating (corn; [9]): 0; Plant response rating, Corn (corn; [10]): 0; Corn plant response rating (corn; [11]): 0; Cocklebur plant response rating (cocklebur; [5]): 0; Cocklebur plant response rating (0 to 10 scale) (cocklebur; Preemergence, Rate 125 g/ha): 0; Cocklebur plant response rating (cocklebur; [6]): 0; Cocklebur plant response rating (cocklebur; [8]): 0; Cocklebur plant response rating (cocklebur; [9]): 0; Plant response rating, Cocklebur (cocklebur; [10]): 0; Cocklebur plant response rating (cocklebur; [11]): 0; Barnyardgrass plant response rating (bamyardgrass; [1]): 0; Barnyardgrass plant response rating (bamyardgrass; [2]): 0; Barnyardgrass plant response rating (bamyardgrass; [3]): 0; Barnyardgrass plant response rating (bamyardgrass; [4]): 0; Wheat plant response rating (wheat; [5]): 0; Wheat plant response rating (0 to 10 scale) (wheat; Preemergence, Rate 125 g/ha): 0; Wheat plant response rating (wheat; [6]): 0; Wheat plant response rating (wheat; [7]): 2; Wheat plant response rating (wheat; [8]): 0; Wheat plant response rating (wheat; [9]): 0; Plant response rating, Wheat (wheat; [10]): 0
